Data: patent US12655125B2 (SIRONAX LTD., priority 2020, dated 2026)

What follows are molecules tested on HT-29 cells (assay: HT29 Cells 0FBS Assay In Vitro (TNF-α/SMAC mimetic/zVAD-FMK induced necroptosis, CellTiter-Glo cell viability)). Settings: Homo sapiens; HT-29 cells, FBS free medium, TNF-α (10 ng/ml), SMAC mimetic (6 uM), zVAD-FMK (10 μM), 20 hours; geometric mean EC50; read-out: Cell activity (EC50) of Compounds 1-116.
Assay type: cell-based
How it was run: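 HT-29 cells (5,000/well, seeded overnight) in serum-free McCoy's 5A were stimulated with TNF-α 10 ng/ml, SMAC mimetic 6 μM and zVAD-FMK 10 μM to induce necroptosis. Compound added as 10-point 3-fold series for 20 h at 37° C. CellTiter-Glo luminescence gives viability; EC50 is geometric mean of duplicate dose-responses.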

`Cc1nocc1-c1ncc(F)c(OC2CN(C(=O)N3N=CC[C@H]3c3cc(F)cc(F)c3)C2)n1` [compound 22, (S)-(5-(3,5-difluorophenyl)-4,5-dihydro-1H-pyrazol-1-yl)(3-((5-fluoro-2-(3-methylisoxazol-4-yl)pyrimidin-4-yl)oxy)azetidin-1-yl)methanone] and `Cc1nnn(C)c1-c1cc(OC2CN(C(=O)N3N=CC[C@H]3c3cc(F)cc(F)c3)C2)c(F)cn1` [compound 47, (S)-(5-(3,5-difluorophenyl)-4,5-dihydro-1H-pyrazol-1-yl)(3-((2-(1,4-dimethyl-1H-1,2,3-triazol-5-yl)-5-fluoropyridin-4-yl)oxy)azetidin-1-yl)methanone] fall in the same range of EC50: 0.0001 to 0.1 µM for the first, 0.0001 to 0.1 µM for the second.

First: CN(C)CCOc1cnn(C)c1-c1cc(OC2CN(C(=O)N3N=CC[C@H]3c3cc(F)cc(F)c3)C2)c(F)cn1 [compound 51, (S)-(5-(3,5-difluorophenyl)-4,5-dihydro-1H-pyrazol-1-yl)(3-((2-(4-(2-(dimethylamino)ethoxy)-1-methyl-1H-pyrazol-5-yl)-5-fluoropyridin-4-yl)oxy)azetidin-1-yl)methanone]
Second: Cn1ncc(F)c1-c1cc(OC2CN(C(=O)N3N=CC[C@H]3c3cc(F)cc(F)c3)C2)c(F)cn1 [compound 81, (S)-(5-(3,5-difluorophenyl)-4,5-dihydro-1H-pyrazol-1-yl)(3-((5-fluoro-2-(4-fluoro-1-methyl-1H-pyrazol-5-yl)pyridin-4-yl)oxy)azetidin-1-yl)methanone]
The EC50 of the first is higher: 0.1 to 1 µM for the first, 0.0001 to 0.1 µM for the second. The second is the more potent here.

`CN(C)C(=O)CNc1cnn(C)c1-c1cc(OC2CN(C(=O)N3N=CC[C@H]3c3cc(F)cc(F)c3)C2)c(F)cn1` [compound 63, (S)-2-((5-(4-((1-(5-(3,5-difluorophenyl)-4,5-dihydro-1H-pyrazole-1-carbonyl)azetidin-3-yl)oxy)-5-fluoropyridin-2-yl)-1-methyl-1H-pyrazol-4-yl)amino)-N,N-dimethylacetamide] and `CCC(=O)Nc1cnn(C)c1-c1cc(OC2CN(C(=O)N3N=CC[C@H]3c3cc(F)cc(F)c3)C2)c(F)cn1` [compound 58, (S)—N-(5-(4-((1-(5-(3,5-difluorophenyl)-4,5-dihydro-1H-pyrazole-1-carbonyl)azetidin-3-yl)oxy)-5-fluoropyridin-2-yl)-1-methyl-1H-pyrazol-4-yl)propionamide] fall in the same range of EC50: 0.0001 to 0.1 µM for the first, 0.0001 to 0.1 µM for the second.

`CCNC(=O)c1cnn(C)c1-c1cc(OC2CN(C(=O)N3N=CC[C@H]3c3cc(F)cc(F)c3)C2)c(F)cn1` [compound 71, (S)-5-(4-((1-(5-(3,5-difluorophenyl)-4,5-dihydro-1H-pyrazole-1-carbonyl)azetidin-3-yl)oxy)-5-fluoropyridin-2-yl)-N-ethyl-1-methyl-1H-pyrazole-4-carboxamide] and `Cc1ncc(-c2cc(OC3CN(C(=O)N4N=CC[C@H]4c4cc(F)cc(F)c4)C3)c(F)cn2)s1` [compound 26, (S)-(5-(3,5-difluorophenyl)-4,5-dihydro-1H-pyrazol-1-yl)(3-((5-fluoro-2-(2-methylthiazol-5-yl)pyridin-4-yl)oxy)azetidin-1-yl)methanone] fall in the same range of EC50: 0.0001 to 0.1 µM for the first, 0.0001 to 0.1 µM for the second.

Same assay, conditions: Homo sapiens; HT-29 cells, FBS free medium, TNF-α (10 ng/ml), SMAC mimetic (6 uM), zVAD-FMK (10 μM), 20 hours; geometric mean EC50; read-out: Cell activity (EC50) of Compounds 117-281

`Cc1nn(S(C)(=O)=O)c(C)c1-c1cc(OC2CN(C(=O)N3N=CC[C@H]3c3cc(F)cc(F)c3)C2)c(F)cn1` [compound 187, (S)-(5-(3,5-difluorophenyl)-4,5-dihydro-1H-pyrazol-1-yl)(3-((2-(3,5-dimethyl-1-(methylsulfonyl)-1H-pyrazol-4-yl)-5-fluoropyridin-4-yl)oxy)azetidin-1-yl)methanone] and `Cc1c(S(C)(=O)=O)nn(C)c1-c1cc(OC2CN(C(=O)N3N=CC[C@H]3c3cc(F)cc(F)c3)C2)c(F)cn1` [compound 177, (5-(3,5-difluorophenyl)-4,5-dihydro-1H-pyrazol-1-yl)(3-((2-(1,4-dimethyl-3-(methylsulfonyl)-1H-pyrazol-5-yl)-5-fluoropyridin-4-yl)oxy)azetidin-1-yl)methanone] fall in the same range of EC50: 0.0001 to 0.1 µM for the first, 0.0001 to 0.1 µM for the second.

`Cc1c(C(N)=O)nn(C)c1-c1cc(OC2CN(C(=O)N3N=CC[C@H]3c3cc(F)cc(F)c3)C2)c(F)cn1` [compound 165, (S)-5-(4-((1-(5-(3,5-difluorophenyl)-4,5-dihydro-1H-pyrazole-1-carbonyl)azetidin-3-yl)oxy)-5-fluoropyridin-2-yl)-1,4-dimethyl-1H-pyrazole-3-carboxamide] and `Cc1nn(C)c(-c2cc(OC3CN(C(=O)N4N=CC[C@H]4c4cc(F)cc(F)c4)C3)c(F)cn2)c1N` [compound 209, (S)-(3-((2-(4-amino-1,3-dimethyl-1H-pyrazol-5-yl)-5-fluoropyridin-4-yl)oxy)azetidin-1-yl)(5-(3,5-difluorophenyl)-4,5-dihydro-1H-pyrazol-1-yl)methanone] fall in the same range of EC50: 0.0001 to 0.1 µM for the first, 0.0001 to 0.1 µM for the second.

Compared with `Cc1nn(-c2cc(OC3CN(C(=O)N4N=CC[C@H]4c4cc(F)cc(F)c4)C3)c(F)cn2)c(C)c1CC(=O)O` [compound 278, (S)-2-(1-(4-((1-(5-(3,5-difluorophenyl)-4,5-dihydro-1H-pyrazole-1-carbonyl)azetidin-3-yl)oxy)-5-fluoropyridin-2-yl)-3,5-dimethyl-1H-pyrazol-4-yl)acetic acid], `Cc1nn(-c2cc(OC3CN(C(=O)N4N=CC[C@H]4c4cc(F)cc(F)c4)C3)c(F)cn2)c(C)c1CC#N` [compound 271, (S)-2-(1-(4-((1-(5-(3,5-difluorophenyl)-4,5-dihydro-1H-pyrazole-1-carbonyl)azetidin-3-yl)oxy)-5-fluoropyridin-2-yl)-3,5-dimethyl-1H-pyrazol-4-yl)acetonitrile] is lower in EC50: 0.1 to 1 µM for the first, 0.0001 to 0.1 µM for the second.

`Cc1cc(C)n(-c2cc(OC3CN(C(=O)N4N=CC[C@H]4c4cc(F)cc(F)c4)C3)c(F)cn2)n1` [compound 221, (S)-(5-(3,5-difluorophenyl)-4,5-dihydro-1H-pyrazol-1-yl)(3-((2-(3,5-dimethyl-1H-pyrazol-1-yl)-5-fluoropyridin-4-yl)oxy)azetidin-1-yl)methanone] and `Cc1cc(C(F)(F)F)nn1-c1cc(OC2CN(C(=O)N3N=CC[C@H]3c3cc(F)cc(F)c3)C2)c(F)cn1` [compound 170, (S)-(5-(3,5-difluorophenyl)-4,5-dihydro-1H-pyrazol-1-yl)(3-((5-fluoro-2-(5-methyl-3-(trifluoromethyl)-1H-pyrazol-1-yl)pyridin-4-yl)oxy)azetidin-1-yl)methanone] fall in the same range of EC50: 0.0001 to 0.1 µM for the first, 0.0001 to 0.1 µM for the second.

`Cc1nn(-c2cc(OC3CN(C(=O)N4N=CC[C@H]4c4cc(F)cc(F)c4)C3)c(F)cn2)c(C)c1C(=O)NO` [compound 252, (S)-1-(4-((1-(5-(3,5-difluorophenyl)-4,5-dihydro-1H-pyrazole-1-carbonyl)azetidin-3-yl)oxy)-5-fluoropyridin-2-yl)-N-hydroxy-3,5-dimethyl-1H-pyrazole-4-carboxamide] and `Cc1nn(-c2cc(OC3CN(C(=O)N4N=CC[C@H]4c4cc(F)cc(F)c4)C3)c(F)cn2)c(C)c1C` [compound 251, (S)-(5-(3,5-difluorophenyl)-4,5-dihydro-1H-pyrazol-1-yl)(3-((5-fluoro-2-(3,4,5-trimethyl-1H-pyrazol-1-yl)pyridin-4-yl)oxy)azetidin-1-yl)methanone] fall in the same range of EC50: 0.0001 to 0.1 µM for the first, 0.0001 to 0.1 µM for the second.

`Cn1ccnc1-c1cc(OC2CN(C(=O)N3N=CC[C@H]3c3cc(F)cc(F)c3)C2)c(F)cn1` [compound 146, (S)-(5-(3,5-difluorophenyl)-4,5-dihydro-1H-pyrazol-1-yl)(3-((5-fluoro-2-(1-methyl-1H-imidazol-2-yl)pyridin-4-yl)oxy)azetidin-1-yl)methanone] and `Cc1c(-c2cc(OC3CN(C(=O)N4N=CC[C@H]4c4cc(F)cc(F)c4)C3)c(F)cn2)nn(C)c1N` [compound 218, (S)-(3-((2-(5-amino-1,4-dimethyl-1H-pyrazol-3-yl)-5-fluoropyridin-4-yl)oxy)azetidin-1-yl)(5-(3,5-difluorophenyl)-4,5-dihydro-1H-pyrazol-1-yl)methanone] fall in the same range of EC50: 0.0001 to 0.1 µM for the first, 0.0001 to 0.1 µM for the second.

`Cc1cnn(C)c1-c1cnc(F)c(OC2CN(C(=O)N3N=CC[C@H]3c3cc(F)cc(F)c3)C2)c1` [compound 208, (S)-(5-(3,5-difluorophenyl)-4,5-dihydro-1H-pyrazol-1-yl)(3-((5-(1,4-dimethyl-1H-pyrazol-5-yl)-2-fluoropyridin-3-yl)oxy)azetidin-1-yl)methanone] and `Cc1c([S+](C)[O-])nn(C)c1-c1cc(OC2CN(C(=O)N3N=CC[C@H]3c3cc(F)cc(F)c3)C2)c(F)cn1` (stereo in doubt) [compound 178, (5-(3,5-difluorophenyl)-4,5-dihydro-1H-pyrazol-1-yl)(3-((2-(1,4-dimethyl-3-(methylsulfinyl)-1H-pyrazol-5-yl)-5-fluoropyridin-4-yl)oxy)azetidin-1-yl)methanone] fall in the same range of EC50: 0.0001 to 0.1 µM for the first, 0.0001 to 0.1 µM for the second.

First: Cc1nn(-c2cc(OC3CN(C(=O)N4N=CC[C@H]4c4cc(F)cc(F)c4)C3)c(F)cn2)c(C)c1C(=O)N[C@@H]1CCOC1 [compound 258, 1-(4-((1-((S)-5-(3,5-difluorophenyl)-4,5-dihydro-1H-pyrazole-1-carbonyl)azetidin-3-yl)oxy)-5-fluoropyridin-2-yl)-3,5-dimethyl-N—((R)-tetrahydrofuran-3-yl)-1H-pyrazole-4-carboxamide]
Second: Cc1c(-c2cc(OC3CN(C(=O)N4N=CC[C@H]4c4cc(F)cc(F)c4)C3)c(F)cn2)c(CO)nn1CC1COC1 [compound 169, (S)-(5-(3,5-difluorophenyl)-4,5-dihydro-1H-pyrazol-1-yl)(3-((5-fluoro-2-(3-(hydroxymethyl)-5-methyl-1-(oxetan-3-ylmethyl)-1H-pyrazol-4-yl)pyridin-4-yl)oxy)azetidin-1-yl)methanone]
The EC50 of the first is lower: 0.0001 to 0.1 µM for the first, 1 to 10 µM for the second.

With `Cc1ncc(C#N)n1-c1cc(OC2CN(C(=O)N3N=CC[C@H]3c3cc(F)cc(F)c3)C2)c(F)cn1` [compound 143, (S)-1-(4-((1-(5-(3,5-difluorophenyl)-4,5-dihydro-1H-pyrazole-1-carbonyl)azetidin-3-yl)oxy)-5-fluoropyridin-2-yl)-2-methyl-1H-imidazole-5-carbonitrile] the EC50 was 0.0001 to 0.1 µM.
